{"source": "PubChem BioAssay (NCI)", "assay_in_all_cases": "growth of human tumour cells (NCI), 48 h", "key": {"786-0 renal": {"test_system": "786-0 renal"}, "A498 renal": {"test_system": "A498 renal"}, "A549 NSCLC": {"test_system": "A549 NSCLC"}, "ACHN renal": {"test_system": "ACHN renal"}, "CAKI-1 renal": {"test_system": "CAKI-1 renal"}, "CCRF-CEM leukemia": {"test_system": "CCRF-CEM leukemia"}, "COLO 205 colon": {"test_system": "COLO 205 colon"}, "DLD-1 colon": {"test_system": "DLD-1 colon"}, "DMS 273 small cell lung": {"test_system": "DMS 273 small cell lung"}, "EKVX NSCLC": {"test_system": "EKVX NSCLC"}, "HCC-2998 colon": {"test_system": "HCC-2998 colon"}, "HCT-116 colon": {"test_system": "HCT-116 colon"}, "HCT-15 colon": {"test_system": "HCT-15 colon"}, "HL-60(TB) leukemia": {"test_system": "HL-60(TB) leukemia"}, "HOP-18 NSCLC": {"test_system": "HOP-18 NSCLC"}, "HOP-62 NSCLC": {"test_system": "HOP-62 NSCLC"}, "HOP-92 NSCLC": {"test_system": "HOP-92 NSCLC"}, "HT29 colon": {"test_system": "HT29 colon"}, "IGROV1 ovarian": {"test_system": "IGROV1 ovarian"}, "K-562 leukemia": {"test_system": "K-562 leukemia"}, "KM12 colon": {"test_system": "KM12 colon"}, "KM20L2 colon": {"test_system": "KM20L2 colon"}, "LOX IMVI melanoma": {"test_system": "LOX IMVI melanoma"}, "LXFL 529 NSCLC": {"test_system": "LXFL 529 NSCLC"}, "M14 melanoma": {"test_system": "M14 melanoma"}, "M19-MEL melanoma": {"test_system": "M19-MEL melanoma"}, "MALME-3M melanoma": {"test_system": "MALME-3M melanoma"}, "MOLT-4 leukemia": {"test_system": "MOLT-4 leukemia"}, "NCI-H226 lung": {"test_system": "NCI-H226 lung"}, "NCI-H23 lung": {"test_system": "NCI-H23 lung"}, "NCI-H460 lung": {"test_system": "NCI-H460 lung"}, "NCI-H522 lung": {"test_system": "NCI-H522 lung"}, "OVCAR-3 ovarian": {"test_system": "OVCAR-3 ovarian"}, "OVCAR-4 ovarian": {"test_system": "OVCAR-4 ovarian"}, "OVCAR-5 ovarian": {"test_system": "OVCAR-5 ovarian"}, "OVCAR-8 ovarian": {"test_system": "OVCAR-8 ovarian"}, "RPMI-8226 leukemia": {"test_system": "RPMI-8226 leukemia"}, "RXF 393 renal": {"test_system": "RXF 393 renal"}, "SF-268 CNS": {"test_system": "SF-268 CNS"}, "SF-295 CNS": {"test_system": "SF-295 CNS"}, "SF-539 CNS": {"test_system": "SF-539 CNS"}, "SK-MEL-2 melanoma": {"test_system": "SK-MEL-2 melanoma"}, "SK-MEL-28 melanoma": {"test_system": "SK-MEL-28 melanoma"}, "SK-MEL-5 melanoma": {"test_system": "SK-MEL-5 melanoma"}, "SK-OV-3 ovarian": {"test_system": "SK-OV-3 ovarian"}, "SN12C renal": {"test_system": "SN12C renal"}, "SNB-19 CNS": {"test_system": "SNB-19 CNS"}, "SNB-75 CNS": {"test_system": "SNB-75 CNS"}, "SNB-78 CNS": {"test_system": "SNB-78 CNS"}, "SW-620 colon": {"test_system": "SW-620 colon"}, "TK-10 renal": {"test_system": "TK-10 renal"}, "U251 CNS": {"test_system": "U251 CNS"}, "UACC-257 melanoma": {"test_system": "UACC-257 melanoma"}, "UACC-62 melanoma": {"test_system": "UACC-62 melanoma"}, "UO-31 renal": {"test_system": "UO-31 renal"}}, "note": "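Step 1: Grow cells in 96-well plates. Step 2: Expose to compound for 48 hours at 5 concentrations. Step 3: Interpolate endpoints linearly; if unreached, use highest concentration. TGI: concentration producing complete growth inhibition.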"}
{"smiles": "CC[C@]1(O)CC2CN(CCCc3c([nH]c4ccccc34)[C@@](C(=O)OC)(c3cc4c(cc3OC)N(C)C3C45CCN4CC=C[C@](CC)(C45)C(OC(C)=O)[C@@]3(O)C(=O)OC)C2)C1", "note": "(stereo not given in full)", "values": [{"measurement": "TGI", "setting": "786-0 renal", "result": "> 10", "unit": "µM"}, {"measurement": "TGI", "setting": "A498 renal", "result": 4.54, "unit": "µM"}, {"measurement": "TGI", "setting": "A549 NSCLC", "result": "> 10", "unit": "µM"}, {"measurement": "TGI", "setting": "ACHN renal", "result": "> 10", "unit": "µM"}, {"measurement": "TGI", "setting": "CAKI-1 renal", "result": "> 10", "unit": "µM"}, {"measurement": "TGI", "setting": "CCRF-CEM leukemia", "result": "> 10", "unit": "µM"}, {"measurement": "TGI", "setting": "COLO 205 colon", "result": "> 7.86", "unit": "µM"}, {"measurement": "TGI", "setting": "DLD-1 colon", "result": "> 10", "unit": "µM"}, {"measurement": "TGI", "setting": "DMS 273 small cell lung", "result": "> 10", "unit": "µM"}, {"measurement": "TGI", "setting": "EKVX NSCLC", "result": "> 8.04", "unit": "µM"}, {"measurement": "TGI", "setting": "HCC-2998 colon", "result": 8.2, "unit": "µM"}, {"measurement": "TGI", "setting": "HCT-116 colon", "result": "> 10", "unit": "µM"}, {"measurement": "TGI", "setting": "HCT-15 colon", "result": "> 10", "unit": "µM"}, {"measurement": "TGI", "setting": "HL-60(TB) leukemia", "result": "> 5.65", "unit": "µM"}, {"measurement": "TGI", "setting": "HOP-18 NSCLC", "result": 0.73, "unit": "µM"}, {"measurement": "TGI", "setting": "HOP-62 NSCLC", "result": "> 3.4", "unit": "µM"}, {"measurement": "TGI", "setting": "HOP-92 NSCLC", "result": "> 10", "unit": "µM"}, {"measurement": "TGI", "setting": "HT29 colon", "result": "> 3.44", "unit": "µM"}, {"measurement": "TGI", "setting": "IGROV1 ovarian", "result": "> 10", "unit": "µM"}, {"measurement": "TGI", "setting": "K-562 leukemia", "result": "> 10", "unit": "µM"}, {"measurement": "TGI", "setting": "KM12 colon", "result": "> 10", "unit": "µM"}, {"measurement": "TGI", "setting": "KM20L2 colon", "result": 1.05, "unit": "µM"}, {"measurement": "TGI", "setting": "LOX IMVI melanoma", "result": "> 10", "unit": "µM"}, {"measurement": "TGI", "setting": "LXFL 529 NSCLC", "result": "> 10", "unit": "µM"}, {"measurement": "TGI", "setting": "M14 melanoma", "result": 4.01, "unit": "µM"}, {"measurement": "TGI", "setting": "M19-MEL melanoma", "result": "> 10", "unit": "µM"}, {"measurement": "TGI", "setting": "MALME-3M melanoma", "result": "> 3.16", "unit": "µM"}, {"measurement": "TGI", "setting": "MOLT-4 leukemia", "result": "> 10", "unit": "µM"}, {"measurement": "TGI", "setting": "NCI-H226 lung", "result": "> 3.01", "unit": "µM"}, {"measurement": "TGI", "setting": "NCI-H23 lung", "result": 3.77, "unit": "µM"}, {"measurement": "TGI", "setting": "NCI-H460 lung", "result": "> 10", "unit": "µM"}, {"measurement": "TGI", "setting": "NCI-H522 lung", "result": 0.393, "unit": "µM"}, {"measurement": "TGI", "setting": "OVCAR-3 ovarian", "result": "> 2.12", "unit": "µM"}, {"measurement": "TGI", "setting": "OVCAR-4 ovarian", "result": "> 10", "unit": "µM"}, {"measurement": "TGI", "setting": "OVCAR-5 ovarian", "result": "> 10", "unit": "µM"}, {"measurement": "TGI", "setting": "OVCAR-8 ovarian", "result": "> 10", "unit": "µM"}, {"measurement": "TGI", "setting": "RPMI-8226 leukemia", "result": "> 8.84", "unit": "µM"}, {"measurement": "TGI", "setting": "RXF 393 renal", "result": 4.41, "unit": "µM"}, {"measurement": "TGI", "setting": "SF-268 CNS", "result": "> 3.13", "unit": "µM"}, {"measurement": "TGI", "setting": "SF-295 CNS", "result": "> 2.13", "unit": "µM"}, {"measurement": "TGI", "setting": "SF-539 CNS", "result": 6.03, "unit": "µM"}, {"measurement": "TGI", "setting": "SK-MEL-2 melanoma", "result": "> 8.05", "unit": "µM"}, {"measurement": "TGI", "setting": "SK-MEL-28 melanoma", "result": "> 10", "unit": "µM"}, {"measurement": "TGI", "setting": "SK-MEL-5 melanoma", "result": "> 6.15", "unit": "µM"}, {"measurement": "TGI", "setting": "SK-OV-3 ovarian", "result": "> 7.95", "unit": "µM"}, {"measurement": "TGI", "setting": "SN12C renal", "result": "> 10", "unit": "µM"}, {"measurement": "TGI", "setting": "SNB-19 CNS", "result": 9.83, "unit": "µM"}, {"measurement": "TGI", "setting": "SNB-75 CNS", "result": 5.7, "unit": "µM"}, {"measurement": "TGI", "setting": "SNB-78 CNS", "result": "> 3.04", "unit": "µM"}, {"measurement": "TGI", "setting": "SW-620 colon", "result": "> 10", "unit": "µM"}, {"measurement": "TGI", "setting": "TK-10 renal", "result": "> 10", "unit": "µM"}, {"measurement": "TGI", "setting": "U251 CNS", "result": "> 10", "unit": "µM"}, {"measurement": "TGI", "setting": "UACC-257 melanoma", "result": "> 10", "unit": "µM"}, {"measurement": "TGI", "setting": "UACC-62 melanoma", "result": "> 10", "unit": "µM"}, {"measurement": "TGI", "setting": "UO-31 renal", "result": "> 10", "unit": "µM"}]}
